Results from US20260091082A1, “CYCLIC PEPTIDE DERIVATIVE COMPOSITION FOR TREATING OR PREVENTING EYE DISEASE” (DKS Co. Ltd., priority 2022, published 2026).
Values joined by “and” are separate entries in the source; they are usually repeats but may differ in a detail not shown here. Identical values can stand only once.

Test system: anterior chamber aqueous humor pressure load rat model
Experiment: Retinal thickness (IPL, INL, ONL) in retinal damage model induced by anterior chamber aqueous humor pressure load
Type: in vivo, Rat; Slc: SD
Conditions: for Thickness of INL (μm) / Thickness of IPL (μm) / Thickness of ONL (μm): 10 mg/mL intravenous (1 mL/kg once) about 30 minutes before ischemic load (test group 4), 14 days after model creation, mean ± S.E., 10 animals
Description: • Name: Compound 9 • Source: Synthesized in the above Examples • Used amount: 0.4 mL (50 mg/mL solution) • Storage conditions: Freezing, light shielding
Method for preparing test substance (1 mg/mL): A high concentration solution prepared at 50 mg/mL was diluted 50 times with a medium to prepare a 1 mg/mL administration solution.
• Name: MK-801 • Distributor: SIGMA-ALDRICH • Use amount: 0.0501 g • Storage condition: refrigerated (2° C. to 8° C.)
Method for preparing positive control substance (10 mg/mL): 0.0501 g was weighed out and made up to a total volume of 5 mL with a control substance (physiological saline).
• Species and strains: Rat; Slc: SD • Number of animals on arrival and sex: 50 males • Age in weeks at arrival: 6 weeks old • Body weight range at arrival: 147.2 to 170.0 g • Source: Japan SLC, Inc.
Grouping was performed two days before the first creation of the retinal damage model induced by an anterior chamber aqueous humor pressure load. Using the daily body weight as an index, stratified random allocation was performed using SAS (Ver. 9.3, SAS Institute Japan Ltd.) and EXSUS (Ver. 8.0, CAC Croit Corporation) so that an average value of the body weights of each group was approximately uniform.
• Administration route: Eyedrop administration, intravenous administration • Administration method (eyedrop): Eyedrop administration was performed on a treated eye (right eye) of a rat using a micropipette 4 times a day (at intervals of 1.5 hours or more). • Administration method (intravenous): The amount of administration solution, calculated from the body weight on the day of administration, was administered from the tail vein using a syringe and an injection needle about 30 minutes before ischemic load. • Time of administration: Administration was performed according to the following schedule.
1. 10 mg/kg xylazine hydrochloride was intramuscularly administered on the model creation day (day 0). A rat was placed in an anesthesia box and subjected to general anesthesia with isoflurane (5%, oxygen:nitrous oxide=1:3). When anesthesia was effective, the rat was taken out of the anesthesia box, an inhalation anesthetic mask was worn, and anesthesia was maintained with isoflurane (1% to 5%, oxygen nitrous oxide=1:3).
2. The body temperature was maintained at 37° C. with a warming mat, and a mydrin P ophthalmic solution was instilled in the right eye (treated eye) of the rat to dilate the pupil, then the cravit ophthalmic solution 1.5% (Santen Pharmaceutical Co., Ltd.) was instilled.
3. A bottle of an IV bag containing physiological saline was previously suspended so that a water surface was 155 cm (100 mmHg or more) higher than the eye of the rat. The IV bag was connected to a pediatric infusion set (Terumo Corporation), a 27 G injection needle thereof was inserted into and fixed to the anterior chamber while slightly dripping the liquid from a needle tip. The model was created in the light phase (6:00 to 18:00) in consideration of the diurnal variation of the intraocular pressure.
4. After the needle was inserted into the anterior chamber, pressure (100 mmHg or more) was loaded and maintained in the anterior chamber by associating the reflux system.
5. After an ischemic load for 45 minutes, the injection needle and the like were removed, the inhalation anesthetic mask was removed, and the rat was sufficiently woken up under a warming mat, and then returned to the cage.
6. For 2 days after surgery, 10 mg/kg xylazine hydrochloride was intramuscularly administered as an analgesic for the purpose of alleviating the pain after the treatment.
1. Fourteen days after model creation, general anesthesia was performed with isoflurane (5%, oxygen:nitrous oxide=1:3), euthanasia was then performed by exsanguination, a suture was placed as a marker at the 12 o'clock position of the ocular conjunctiva, and eyeball enucleation was performed.
2. […]

[1] = 10 mg/mL intravenous, right eye, 300 μm from optic disk, individual measurements per animal
[2] = 10 mg/mL intravenous, right eye, 300 μm from optic disk, mean per animal
[3] = 10 mg/mL intravenous, right eye, 600 μm from optic disk, individual measurements per animal
[4] = 10 mg/mL intravenous, right eye, 600 μm from optic disk, mean per animal
[5] = 10 mg/mL intravenous, right eye, 900 μm from optic disk, individual measurements per animal
[6] = 10 mg/mL intravenous, right eye, 900 μm from optic disk, mean per animal

C[C@]12N[C@H](Cc3ccccc31)c1ccccc12 [MK-801, reference compound]
Thickness of INL (μm), Distance from Optic Disk 300 μm [1]: 43.354 μm and 38.856 μm and 38.516 μm and 27.422 μm (2×) and 28.629 μm and 30.645 μm and 26.920 μm and 25.120 μm and 24.650 μm and 35.504 μm and 33.881 μm and 32.856 μm and 27.965 μm and 24.925 μm and 25.788 μm and 20.485 μm and 25.262 μm and 25.607 μm and 23.821 μm and 27.016 μm and 25.835 μm and 27.670 μm and 26.395 μm and 24.758 μm and 25.159 μm and 24.873 μm and 35.703 μm and 32.278 μm and 31.627 μm
Thickness of IPL (μm), Distance from Optic Disk 300 μm [1]: 47.608 μm and 50.434 μm and 48.521 μm and 38.326 μm and 39.132 μm and 40.728 μm and 36.614 μm and 38.136 μm and 36.780 μm and 37.923 μm and 37.097 μm and 36.446 μm and 38.879 μm and 37.066 μm and 37.189 μm and 34.034 μm and 34.084 μm and 33.182 μm and 34.736 μm and 31.462 μm and 32.671 μm and 35.348 μm and 37.744 μm and 37.108 μm and 43.612 μm and 37.515 μm and 38.865 μm and 37.237 μm and 35.429 μm and 37.489 μm
Thickness of INL (μm), Distance from Optic Disk 300 μm, Mean [2]: 40.242 μm and 28.899 μm and 25.563 μm and 34.080 μm and 26.226 μm and 23.785 μm and 25.557 μm and 27.162 μm and 24.930 μm and 33.203 μm
Thickness of IPL (μm), Distance from Optic Disk 300 μm, Mean [2]: 48.854 μm and 39.395 μm and 37.177 μm and 37.155 μm and 37.711 μm and 33.767 μm and 32.956 μm and 36.733 μm and 39.997 μm and 36.718 μm
Thickness of INL (μm), Distance from Optic Disk 600 μm [3]: 38.743 μm and 36.612 μm and 29.504 μm and 25.885 μm and 27.808 μm and 31.247 μm and 41.632 μm and 47.024 μm and 32.661 μm and 30.741 μm and 27.960 μm and 28.852 μm and 19.795 μm and 16.209 μm and 32.381 μm and 32.162 μm and 24.755 μm and 25.923 μm (2×) and 32.268 μm and 39.011 μm and 36.780 μm and 28.629 μm and 32.351 μm and 44.795 μm and 30.775 μm and 27.268 μm and 20.418 μm and 31.364 μm and 35.532 μm
Thickness of IPL (μm), Distance from Optic Disk 600 μm [3]: 51.638 μm and 52.865 μm and 43.668 μm and 44.847 μm and 43.645 μm and 46.040 μm and 48.131 μm and 48.555 μm and 40.323 μm and 42.059 μm and 40.708 μm and 38.245 μm and 23.016 μm and 30.373 μm and 47.349 μm and 49.055 μm and 51.482 μm and 47.356 μm and 46.081 μm and 48.016 μm and 49.876 μm and 42.369 μm and 44.364 μm and 47.408 μm and 44.018 μm and 42.681 μm and 28.572 μm and 45.620 μm and 44.033 μm and 47.914 μm
Thickness of INL (μm), Distance from Optic Disk 600 μm, Mean [4]: 37.378 μm and 28.006 μm and 30.469 μm and 44.484 μm and 31.392 μm and 28.027 μm and 18.807 μm and 31.969 μm and 25.534 μm and 35.604 μm
Thickness of IPL (μm), Distance from Optic Disk 600 μm, Mean [4]: 51.460 μm and 43.628 μm and 44.683 μm and 48.031 μm and 42.133 μm and 40.545 μm and 27.320 μm and 47.341 μm and 47.624 μm and 47.337 μm
Thickness of INL (μm), Distance from Optic Disk 900 μm [5]: 38.448 μm and 33.242 μm and 40.306 μm and 28.655 μm and 32.584 μm and 30.110 μm and 27.670 μm and 26.653 μm and 27.205 μm and 46.278 μm and 47.196 μm and 49.419 μm and 26.256 μm and 28.272 μm and 28.572 μm and 28.638 μm and 29.653 μm and 28.909 μm and 18.887 μm and 19.638 μm and 20.068 μm and 28.079 μm and 29.083 μm and 31.101 μm and 27.776 μm and 27.037 μm and 27.422 μm and 33.221 μm and 42.252 μm and 40.931 μm
Thickness of IPL (μm), Distance from Optic Disk 900 μm [5]: 53.305 μm and 54.992 μm and 50.505 μm and 49.780 μm and 48.950 μm and 49.327 μm and 45.307 μm and 46.968 μm and 47.454 μm and 59.185 μm and 57.507 μm and 59.952 μm and 47.370 μm and 46.144 μm and 43.062 μm and 44.289 μm and 45.534 μm and 44.647 μm and 26.506 μm and 30.220 μm and 35.348 μm and 47.148 μm and 37.774 μm and 39.021 μm and 47.795 μm and 46.694 μm and 44.145 μm and 52.722 μm and 49.687 μm and 46.942 μm
Thickness of INL (μm), Distance from Optic Disk 900 μm, Mean [6]: 37.332 μm and 30.450 μm and 27.176 μm and 47.631 μm and 27.700 μm and 29.067 μm and 19.531 μm and 29.421 μm and 27.412 μm and 38.801 μm
Thickness of IPL (μm), Distance from Optic Disk 900 μm, Mean [6]: 52.934 μm and 49.352 μm and 46.576 μm and 58.881 μm and 45.525 μm and 44.823 μm and 30.691 μm and 41.314 μm and 46.211 μm and 49.784 μm
Thickness of INL (μm) (300 μm from optic disk): 28.96±1.66 μm
Thickness of IPL (μm) (300 μm from optic disk): 38.05±1.38 μm
Thickness of ONL (μm) (300 μm from optic disk): 42.08±1.66 μm
Thickness of INL (μm) (600 μm from optic disk): 31.17±2.21 μm
Thickness of IPL (μm) (600 μm from optic disk): 44.01±2.11 μm
Thickness of ONL (μm) (600 μm from optic disk): 45.28±1.75 μm
Thickness of INL (μm) (900 μm from optic disk): 31.45±2.48 μm
Thickness of IPL (μm) (900 μm from optic disk): 46.61±2.34 μm
Thickness of ONL (μm) (900 μm from optic disk): 45.02±1.52 μm
Thickness of ONL, distance from optic disk 300 μm (single measurement) (MK-801, 10 mg/mL intravenous, right eye, individual animals 401-410): 49.987 μm and 47.894 μm and 44.120 μm and 44.371 μm and 45.163 μm and 41.953 μm (2×) and 41.468 μm and 43.326 μm and 44.787 μm and 50.806 μm and 50.609 μm and 36.032 μm and 35.996 μm and 37.658 μm and 33.339 μm and 36.442 μm and 39.921 μm and 32.751 μm and 35.889 μm and 35.090 μm and 45.922 μm and 43.490 μm and 44.532 μm and 39.787 μm and 38.794 μm and 36.469 μm and 48.975 μm and 47.935 μm and 47.053 μm
